Molecules are shown by their SMILES. Values after ≈ are worked out from the molar mass of the structure shown. Like-named read-outs stand apart in the source and are kept apart here.

Common to all, as to type: cell-based
The subject of experiment [1] is MRSA EMRSA 15 1729/98. The experiment is described as follows: MIC agar dilution, MRSA strain 42. As to conditions: Staphylococcus aureus. The protocol: (§1) Molar equivalent concentrations were used to allow comparison between compounds of differing molecular mass. Due to weighing difficulties, any compound in solid form was melted in a water bath prior to dilution. To make ten-times strength concentrations, which takes into account agar dilution, 0.0352 mmol of each compound was weighed into plastic universal bottles and 4 mL of sterile distilled water (SDW) was added. To produce a homogenous emulsion the universals were vortexed; once achieved the emulsions were serial diluted by adding 2 mL to 2 mL of SDW.
(§2) For every 100 mL of Isosensitest agar (IST) (CM0471; Oxoid, Basingstoke, England), 3.1 g of the IST powder was added to 100 mL SDW (as per manufacturer's instructions) and sterilised for 15 minutes at 121° C. Once sterilised, the molten agar was cooled to 50° C. in a water-bath. Subsequently 4.8 g of CCEY powder (BC2160; Bioconnections, Wetherby, England), also known as Brazier's medium, was added to 100 mL SDW for every 100 mL of agar needed. This was then sterilised for 15 minutes at 121° C. Once sterilised the molten agar was cooled to 50° C. in a water-bath and 4 mL of egg-yolk emulsion (S2073; TCS Biosciences Ltd, Buckingham, United Kingdom) and 1 mL of lysed defibrinated horse blood (HB035; TCS Biosciences Ltd, Buckingham, United Kingdom) were also added for every 100 mL needed. Horse blood lysis is achieved by dilution to half concentration with SDW; when fully lysed the mixture will turn dark red in colour.
(§3) 18 mL agar was added to each universal and then poured into sterile Petri dishes. This step creates a 1/10 dilution resulting in agar plates of the required strength. Control plates for each set of strains were created by adding 18 mL of agar to 2 mL of SDW.
(§4) Suspensions of each bacterial species were prepared with a density equal to that of a 0.5 McFarland standard using a densitometer. All suspensions were made using sterile distilled water and fresh 18-20 hour cultures. As a 0.5 McFarland standard contains 1.5×10^8 CFU/mL and the multipoint inoculators applies 1 μL spots of liquid, each bacterial suspension was diluted 1/15 (20 μL suspension to 280 μL sterile distilled water).
(§5) Bacterial suspensions were prepared from fresh 18-24 hour cultures as previously described. 1 μL of each strain was inoculated onto all 100 agar plates containing a different chemical concentration and the 2 control plates. This was done using a multipoint inoculator which inoculates 20 strains per plate. All plates were incubated for 22 hours at 37° C. in aerobic conditions.
(§6) Each plate was examined for bacterial growth after 22 and 48 hours, with each being incubated in between examinations. A positive result was recorded as growth of ≧10 colonies. A negative result was recorded as growth of <10 colonies as this is equivalent to 99.9% inhibition. The lowest concentration of chemical that inhibited growth was recorded as the MIC. The results are recorded in Table IV below, where the numbers are quoted in mmol/L.
(§7) Given the positive performance of the ethoxylates of lauryl alcohol in reducing the MIC for a number of the micro-organisms tested, further MIC testing of Laureth-1 [C12E1] through to Laureth-8 [C12E8] was conducted on each of the following: • 10 strains of vancomycin-resistant enterococci (VRE)—listed in Table V below; and • 20 strains of methicillin-resistant Staphylococcus aureus (MRSA)—listed in Table VI.
(§8) The alkanol, alkanol derivatives, agar plates, and inocula were all prepared in the same way as described above.
(§9) The plates were examined in the same manner as described above and the results are recorded in Table VII below, where the numbers are quoted in mmol/L.
On the technique in general: In agar dilution, organisms are placed on agar that contains the substance at set levels.

The test system of experiment [2] is MRSA BEL 97598. Briefly: MIC agar dilution, MRSA strain 34. The note with it: Staphylococcus aureus. The protocol: as §1, §2, §3, §4, §5, §6, §7, §8, §9
The test system of experiment [3] is MRSA EMRSA 15 21268/98. Briefly: MIC agar dilution, MRSA strain 40. The note with it: Staphylococcus aureus. The protocol:
as §1, §2, §3, §4, §5, §6, §7, §8, §9

The subject of experiment [4] is Bacillus subtilis. Briefly: MIC agar dilution, micro-organism 18 (9372). The note with it: Bacillus subtilis 9372, read-out: MIC. The procedure, abridged: (§10)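 Twofold dilutions of compound emulsions in water were set in Isosensitest agar with Brazier's CCEY medium, egg yolk and lysed horse blood. Spots of 1 µL from 0.5 McFarland suspensions diluted 1/15 were incubated aerobically at 37 °C and read at 22 and 48 h. MIC (mmol/L) was the lowest concentration giving <10 colonies.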

For experiment [5], the system named is MRSA EMRSA 16 18200/95. Briefly: MIC agar dilution, MRSA strain 48. The note with it: Staphylococcus aureus. The protocol: as §1, §2, §3, §4, §5, §6, §7, §8, §9
Experiment [6] concerns Enterococcus faecium (VRE) MB310. The experiment is described as follows: MIC agar dilution, VRE strain 29. The protocol:
as §1, §2, §3, §4, §5, §6, §7, §8, §9

Experiment [7] deals with Enterococcus faecium (VRE) 255693 N. Tyneside. Briefly: MIC agar dilution, VRE strain 22. As to the method:
as §1, §2, §3, §4, §5, §6, §7, §8, §9

Experiment [8] relates to Staphylococcus epidermidis. Briefly: MIC agar dilution, micro-organism 14 (11047). As to conditions: Staphylococcus epidermidis 11047, read-out: MIC. The procedure, abridged:
as §10

Experiment [9] relates to Gram negative bacteria, Gram positive bacteria and pathogenic yeasts. The experiment is described as follows: MIC agar dilution, summary statements over the micro-organisms tested (Tables I, IX). As to conditions: read-out: MIC.
Text: For a better understanding, the present invention will now be more particularly described, by way of non-limiting example only, as follows. The micro-organisms shown in Table I overleaf were acquired from the National Collection of Type Cultures (NCTC), Colindale, United Kingdom; the American Type Culture Collection (ATCC), Manassas, United States and the National Collection of Pathogenic Fungi (NCPF), Colindale, United Kingdom. They include Gram negative bacteria, Gram positive bacteria and pathogenic yeasts.
Throughout the period of testing the microbial strains were subcultured and incubated for 18-20 hours at 37° C. on a weekly basis. Horse blood agar plates were used to sustain the micro-organisms both prior to and throughout testing. The alkoxylated alkanols listed in Table II below were obtained (these are obtainable from Sigma-Aldrich Company Ltd, Dorset, England), each having a GC purity of at least 97%.
as §1
Myristyl alcohol and lauryl alcohol were re-weighed and dissolved in 25 μL of the polar solvent 1-methyl-2-pyrrolidone (M6762; Sigma-Aldrich) in sterile glass universals due to an inability to achieve an even suspension. To maintain an even emulsion in the presence of SDW 37.5 μL of the non-ionic detergent Tween 20 (P1379, Sigma-Aldrich) was also added. 3.9375 mL of SDW was added to these, to create a 4 mL volume; they were vortexed and diluted as before.
as §2, §3, §4
Bacterial suspensions were prepared from fresh 18-24 hour cultures as previously described. 1 μL of each strain was inoculated onto all 100 agar plates containing a different chemical concentration and the 2 control plates. This was done using a multipoint inoculator which inoculates 20 strains per plate. All plates were incubated for 22 hours at 37° C. in aerobic conditions. […]

Experiment [10] relates to Escherichia coli. Briefly: MIC agar dilution, micro-organism 1 (10418). As to conditions: Escherichia coli 10418, read-out: MIC. A digest of the protocol: as §10

Turning to `CCCCCCCCCCCCOCCOCCOCCOCCO` [L4, Tetraethylene Glycol Monododecyl Ether], the MIC (usually the least concentration at which growth counts as inhibited) in experiment [1] (22 hrs) was found to be 55 µM (≈ 19.9 µg/mL); in experiment [1] (48 hrs), 55 µM (≈ 19.9 µg/mL); in [2] (22 hrs) it was 110 µM (≈ 39.9 µg/mL); in experiment [2] (48 hrs), 110 µM (≈ 39.9 µg/mL); in experiment [3] (22 hrs), 55 µM (≈ 19.9 µg/mL); in [3] (48 hrs), 55 µM (≈ 19.9 µg/mL). Moreover, the MIC stood at 110 µM (≈ 39.9 µg/mL) in [4] (22 hrs); 110 µM (≈ 39.9 µg/mL) in experiment [4] (48 hrs); 55 µM (≈ 19.9 µg/mL) in experiment [5] (22 hrs); 55 µM (≈ 19.9 µg/mL) in experiment [5] (48 hrs); 110 µM (≈ 39.9 µg/mL) in experiment [6] (22 hrs); 110 µM (≈ 39.9 µg/mL) in [6] (48 hrs). Moreover, the MIC in experiment [7] (22 hrs) was 440 µM (≈ 160 µg/mL); in experiment [7] (48 hrs), 880 µM (≈ 319 µg/mL); in experiment [8] (22 hrs) it was 110 µM (≈ 39.9 µg/mL); in experiment [8] (48 hrs), 110 µM (≈ 39.9 µg/mL); in experiment [9], ~110 µM (≈ 39.9 µg/mL); in experiment [10] (22 hrs), > 880 µM. The MIC in experiment [10] (48 hrs) is > 880 µM.
For the compound `CCCCCCCCCCCCOCCOCCOCCO` [L3, Triethylene Glycol Monododecyl Ether], the MIC in experiment [1] (22 hrs), in experiment [1] (48 hrs), in experiment [2] (22 hrs), in [2] (48 hrs), in experiment [3] (22 hrs) and in [3] (48 hrs) was 110 µM (≈ 35 µg/mL) each time. Also, the MIC was 110 µM (≈ 35 µg/mL) in experiment [4] (22 hrs); 110 µM (≈ 35 µg/mL) in [4] (48 hrs); 110 µM (≈ 35 µg/mL) in experiment [5] (22 hrs); 110 µM (≈ 35 µg/mL) in experiment [5] (48 hrs); 440 µM (≈ 140 µg/mL) in [6] (22 hrs); 440 µM (≈ 140 µg/mL) in experiment [6] (48 hrs). Besides, the MIC was 880 µM (≈ 280 µg/mL) in [7] (22 hrs); > 880 µM in [7] (48 hrs); ≤ 50 µM in experiment [8] (22 hrs); ≤ 50 µM in experiment [8] (48 hrs); ~110 µM (≈ 35 µg/mL) in experiment [9]; > 880 µM in [10] (22 hrs). For the same compound, the MIC in [10] (48 hrs) was > 880 µM.
On to `CCCCCCCCCCCCOCCOCCOCCOCCOCCOCCO` [L6, Hexaethylene Glycol Monododecyl Ether], for which the MIC was found to be 110 µM (≈ 49.6 µg/mL) in [1] (22 hrs); 110 µM (≈ 49.6 µg/mL) in experiment [1] (48 hrs); 220 µM (≈ 99.1 µg/mL) in experiment [2] (22 hrs); 220 µM (≈ 99.1 µg/mL) in experiment [2] (48 hrs); 110 µM (≈ 49.6 µg/mL) in experiment [3] (22 hrs); 110 µM (≈ 49.6 µg/mL) in [3] (48 hrs). The MIC in [4] (22 hrs) was determined as 110 µM (≈ 49.6 µg/mL); in experiment [4] (48 hrs), 110 µM (≈ 49.6 µg/mL); in experiment [5] (22 hrs) it was 110 µM (≈ 49.6 µg/mL); in [5] (48 hrs), 220 µM (≈ 99.1 µg/mL); in experiment [6] (22 hrs), 220 µM (≈ 99.1 µg/mL); in experiment [6] (48 hrs) it was 220 µM (≈ 99.1 µg/mL). The minimal inhibitory concentration (MIC) was 440 µM (≈ 198 µg/mL) in experiment [7] (22 hrs); > 880 µM in experiment [7] (48 hrs); 110 µM (≈ 49.6 µg/mL) in experiment [8] (22 hrs); 110 µM (≈ 49.6 µg/mL) in [8] (48 hrs); ~110 µM (≈ 49.6 µg/mL) in [9]; > 880 µM in [10] (22 hrs). Further, in experiment [10] (48 hrs), the MIC is > 880 µM.

Source of the values: patent US20130165368A1, “ANTIMICROBIAL COMPOUNDS” (priority 2010, published 2013).
